Experimental data published in US20070172957A1, “Methods of identifying anti-inflammatory macrolides” (TAISHO PHARMACEUTICAL CO., LTD., priority 2004, published 2007).

Test system: genes predictive for the anti-inflammatory macrolide effect
Experiment: Genes statistically predictive of Clari response: differentially expressed with Clari but not the inactive macrolides MAA or Josa (Appendix E)
Type: cell-based
Details: pooled group mean
Source text: In the case of the above-mentioned (i) related to arachidonic acid biosynthesis, specifically, methods of the embodiment involve assaying whether a test macrolide alters biosynthesis of arachidonic acid, alters the expression or activities of enzymes involved in the biosynthesis or activation of arachidonic acid (e.g., arachidonic acid CoA synthetase, delta-6 desaturase, fatty acid elongase, and delta-5 desaturase, AA-related genes in Tables 2 and 3), or alters the expression of genes identified as predictive for the anti-inflammatory macrolide effect (Appendix E). Assays in which arachidonic acid or gene expression or enzymatic activity is detected can be carried out after contacting a cell with a test macrolide. Any cell line that secretes prostaglandin or produces arachidonic acid can be used. Epithelial and macrophages lines (e.g., A549 or THP-1) are suitable for this purpose; other cell lines can be identified by carrying out assays such as those described in the specific Examples, below. Alternatively, screening assays can be carried out after adding a test macrolide to an in vitro cell system (e.g., a cellular extract or liver microsome preparation) or an in vitro enzyme assay system.

CC[C@H]1OC(=O)[C@H](C)[C@@H](O[C@H]2C[C@@](C)(OC)[C@@H](O)[C@H](C)O2)[C@H](C)[C@@H](O[C@@H]2O[C@H](C)C[C@H](N(C)C)[C@H]2O)[C@](C)(O)C[C@@H](C)/C(=N\OCOCCOC)[C@H](C)[C@@H](O)[C@]1(C)O [roxithromycin]
1.18: mean group, P4HB (SpotID 47366) | mean group, CETN2 (SpotID 47415) | mean group, P4HA1 (SpotID 47935) | mean group, P4HA1 (SpotID 48707) | mean group, TM9SF2 (SpotID 49007)
1.09: mean group, PACE (SpotID 46923) | mean group, UBC (SpotID 49514) | mean group, SERPINF1 (SpotID 49679) | mean group, AD022 (SpotID 49800)
1.14: mean group, EPOR (SpotID 47314) | mean group, NR4A2 (SpotID 47679) | mean group, PRSS25 (SpotID 49006) | mean group, SRC (SpotID 49446)
0.84: mean group, LOC51295 (SpotID 50349)
1.20: mean group, BNIP3L (SpotID 49028)
1.04: mean group, GRB2 (SpotID 48266) | mean group, SCOP (SpotID 50079)
1.12: mean group, MKNK2 (SpotID 46825) | mean group, CLN2 (SpotID 49618)
0.81: mean group, FLJ20699 (SpotID 46633)
0.98: mean group, ARAF1 (SpotID 48521) | mean group, FECH (SpotID 48654) | mean group, MGP (SpotID 50511)
1.11: mean group, BTN3A2 (SpotID 49673)
0.89: mean group, METAP2 (SpotID 46935) | mean group, RANBP1 (SpotID 47446) | mean group, POLA (SpotID 47776) | mean group, CKS2 (SpotID 50590)
1.08: mean group, SDCBP (SpotID 48646) | mean group, TNFRSF10B (SpotID 49272) | mean group, IL10RB (SpotID 50267) | mean group, IKKE (SpotID 50342)
0.99: mean group, MSH3 (SpotID 47504) | mean group, PRLR (SpotID 47850)
0.71: mean group, THBS1 (SpotID 47987)
0.82: mean group, SNK (SpotID 47418)
1.06: mean group, ENTPD6 (SpotID 47811) | mean group, NFE2L1 (SpotID 48557) | mean group, RALA (SpotID 48732) | mean group, ATP2B4 (SpotID 49915) | mean group, SRP19 (SpotID 50601)
0.88: mean group, SFRS7 (SpotID 48149) | mean group, KIAA0217 (SpotID 48804) | mean group, SERPINB1 (SpotID 49117) | mean group, CHAF1B (SpotID 49737)
1.00: mean group, CFL1 (SpotID 50351) | mean group, ARHC (SpotID 50513)
0.95: mean group, NUBP1 (SpotID 47241) | mean group, DCTN1 (SpotID 47439) | mean group, SERPINA1 (SpotID 47522) | mean group, HSPA9B (SpotID 47694) | mean group, ZAP3 (SpotID 48160) | mean group, PPP3CB (SpotID 48717)
1.05: mean group, USF2 (SpotID 47973)
0.97: mean group, NBS1 (SpotID 47754) | mean group, DDC (SpotID 48456) | mean group, ITGAE (SpotID 48921) | mean group, YWHAH (SpotID 49318)
0.94: mean group, TRAP1 (SpotID 47622) | mean group, GOT1 (SpotID 47802) | mean group, MAPK9 (SpotID 48365) | mean group, SpotID 48486 (SpotID 48486 (gene symbol not given)) | mean group, IKKE (SpotID 48725) | mean group, TEB4 (SpotID 49360) | mean group, VTN (SpotID 49490) | mean group, CYC1 (SpotID 49787)
1.13: mean group, MGEA5 (SpotID 48411) | mean group, SpotID 50591 (SpotID 50591 (gene symbol not given))
0.93: mean group, ARHGDIA (SpotID 46843) | mean group, SSI-1 (SpotID 47846) | mean group, MAFB (SpotID 48747) | mean group, RRS1 (SpotID 49169) | mean group, RFC1 (SpotID 49947) | mean group, HIF1A (SpotID 50022)
0.85: mean group, EREG (SpotID 46988)
0.90: mean group, C2orf3 (SpotID 47034) | mean group, FRDA (SpotID 48137)
0.92: mean group, KIAA1172 (SpotID 46679) | mean group, RPL13A (SpotID 48500) | mean group, TRRAP (SpotID 49435) | mean group, AP1G2 (SpotID 49524) | mean group, PRKDC (SpotID 50736)
0.96: mean group, ARHGAP1 (SpotID 46648)
1.10: mean group, ADAM11 (SpotID 47352) | mean group, APLP2 (SpotID 48530) | mean group, XBP1 (SpotID 48620) | mean group, AD022 (SpotID 49767) | mean group, GOCAP1 (SpotID 50421) | mean group, AD022 (SpotID 50738)
1.02: mean group, GCS1 (SpotID 47432) | mean group, RPN2 (SpotID 47988) | mean group, CUTL1 (SpotID 48004) | mean group, LOC54543 (SpotID 49577) | mean group, NDUFA2 (SpotID 50050)
1.01: mean group, CDIPT (SpotID 46896) | mean group, GCN5L1 (SpotID 48301) | mean group, APOE (SpotID 49233) | mean group, BET1 (SpotID 50645)
1.03: mean group, DNASE1L1 (SpotID 47950) | mean group, SRF (SpotID 48026) | mean group, MAPK12 (SpotID 48233) | mean group, CCT3 (SpotID 48345) | mean group, SpotID 49374 (SpotID 49374 (gene symbol not given))
1.07: mean group, CSTF3 (SpotID 49606) | mean group, BN51T (SpotID 50584)
0.91: mean group, HSPBP1 (SpotID 48693)
1.28: mean group, SERPINB1 (SpotID 48415)
0.86: mean group, BARD1 (SpotID 48461) | mean group, ARTS-1 (SpotID 49155) | mean group, CNOT3 (SpotID 50099)
1.16: mean group, PPIB (SpotID 49314)
